Reference: patent publication US9023789B2, “Amylin analogs and pharmaceutical compositions thereof” (Novo Nordisk A/S, priority 2012, dated 2015)
Where two headings read alike, the source gives them in different places. Numbered stars: 1 amine (or outer) side, 2 acyl side, 3 side chain; on linkers, the order of the positions; unused ones are H or OH. Bridge positions count the residues as written; N and C are the ends. Side chains are listed from the residue outwards. Peptide text beside a SMILES is read from it. * marks the point of attachment. C20 diacid = O=C(O)CCCCCCCCCCCCCCCCCCC(=O)*; γGlu = O=C(O)[C@H](CCC(=O)[*:2])N[*:1]; AEEA = NCCOCCOCC(=O)O

How the values were obtained:
[1] = ASSAY (III) ThT fibrillation assay for physical stability; assay type: physicochemical
Method in brief: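 Physical stability scored by ThT fluorescence (444 nm excitation, 485 nm emission) tracked every 20 min during 37 °C incubation with 960 rpm shaking, ThT at 1 μM final. Values are replicate means with SD at chosen times; HPLC against pramlintide standard gives initial and post-assay soluble concentrations.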

Sprague Dawley (SD) rats = experiment: ASSAY (I) efficacy testing on appetite (food intake) using an ad libitum fed rat model; assay type: in vivo; conditions: rat, 30 nmol/kg
Method in brief: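 Individual food consumption was logged each hour up to 7 h and again at 24 h, occasionally 48 h, with Grubbs-test outliers removed. Each 200–250 g Sprague Dawley rat, free-feeding in its home cage under reversed lighting, received a single ip, po or sc dose of 0.01–3 mg/kg at lights-off, alongside a vehicle group.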

[2] = target: T1, human calcitonin receptor (Homo sapiens, UniProt P30988); experiment: ASSAY (VII) binding to the human calcitonin receptor (SPA, 125I-Calcitonin);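 also: cell membranes (35 ng/µL) combined with SPA beads in 40 µL of pH 7.4 Hepes buffer, 384-well format, signal counted on a TopCounter instrument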
T1 construct: expressed in transfected cells
T1 sequence (P30988 25-474): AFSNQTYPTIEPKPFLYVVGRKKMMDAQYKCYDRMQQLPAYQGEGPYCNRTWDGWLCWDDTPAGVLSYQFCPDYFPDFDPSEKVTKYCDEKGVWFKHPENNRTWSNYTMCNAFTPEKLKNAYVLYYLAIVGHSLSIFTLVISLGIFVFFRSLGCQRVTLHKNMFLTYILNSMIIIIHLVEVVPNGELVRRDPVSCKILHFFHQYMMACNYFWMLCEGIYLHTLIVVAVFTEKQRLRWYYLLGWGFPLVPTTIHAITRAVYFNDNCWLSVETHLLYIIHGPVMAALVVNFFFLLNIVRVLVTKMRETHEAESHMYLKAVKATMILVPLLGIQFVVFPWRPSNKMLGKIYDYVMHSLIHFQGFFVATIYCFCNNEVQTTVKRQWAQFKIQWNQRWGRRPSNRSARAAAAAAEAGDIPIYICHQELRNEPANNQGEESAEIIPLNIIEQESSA

| ThT pH 4.0 lag time (h) [1] [h] | IC50 ([2]; read-out: hCTR bind IC50) [nM] | SMILES | Food intake reduction 0-24 h 30 nmol/kg (%) (Sprague Dawley (SD) rats) | Food intake reduction 24-48 h 30 nmol/kg (%) (Sprague Dawley (SD) rats) | IC50 [2] [nM] |
| --- | --- | --- | --- | --- | --- |
| 45 | 6.17 | CC[C@H](C)[C@H](NC(=O)[C@H](C)NC(=O)CNC(=O)[C@H](Cc1ccccc1)NC(=O)[C@H](CC(N)=O)NC(=O)[C@@H]1CCCN1C(=O)[C@H](CO)NC(=O)[C@H](CO)NC(=O)[C@H](Cc1c[nH]cn1)NC(=O)[C@H](CCCNC(=N)N)NC(=O)[C@H](CC(C)C)NC(=O)[C@H](Cc1ccccc1)NC(=O)[C@H](Cc1c[nH]cn1)NC(=O)[C@H](C)NC(=O)[C@H](CC(C)C)NC(=O)[C@H](CCCNC(=N)N)NC(=O)[C@H](CCC(N)=O)NC(=O)[C@@H](NC(=O)[C@H](C)NC(=O)[C@@H]1CSSC[C@H](NC(=O)[C@@H](N)CCCCNC(=O)CC[C@H](NC(=O)CCCCCCCCCCCCCCCCCCC(=O)O)C(=O)O)C(=O)N[C@@H](CC(N)=O)C(=O)N[C@@H]([C@@H](C)O)C(=O)N[C@@H](C)C(=O)N[C@@H]([C@@H](C)O)C(=O)N1)[C@@H](C)O)C(=O)N1CCC[C@H]1C(=O)N[C@@H](CO)C(=O)N[C@@H](CO)C(=O)N[C@H](C(=O)N1CCC[C@H]1C(=O)N[C@H](C(=O)NCC(=O)N[C@@H](CO)C(=O)N[C@@H](CC(N)=O)C(=O)N[C@H](C(=O)N[C@@H](Cc1ccc(O)cc1)C(N)=O)[C@@H](C)O)C(C)C)[C@@H](C)O [Example 62] (H-K([γGlu-C20 diacid])CNTATCATQRLAHFLRHSSPNFGAIPSSTPVGSNTY-NH2; disulfide 2-7; N-terminus assumed) | 62 | 18 |  |
| 45 | 22.5 | CC[C@H](C)[C@H](NC(=O)[C@H](C)NC(=O)CNC(=O)[C@H](Cc1ccccc1)NC(=O)[C@H](CC(N)=O)NC(=O)[C@@H]1CCCN1C(=O)[C@H](CO)NC(=O)[C@H](CO)NC(=O)[C@H](Cc1c[nH]cn1)NC(=O)[C@H](CCCNC(=N)N)NC(=O)[C@H](CC(C)C)NC(=O)[C@H](Cc1ccccc1)NC(=O)[C@H](CCC(=O)O)NC(=O)[C@H](C)NC(=O)[C@H](CC(C)C)NC(=O)[C@H](CCCNC(=N)N)NC(=O)[C@H](CCC(N)=O)NC(=O)[C@@H](NC(=O)[C@H](C)NC(=O)[C@@H]1CSSC[C@H](NC(=O)[C@@H](N)CCCCNC(=O)CC[C@H](NC(=O)CC[C@H](NC(=O)CCCCCCCCCCCCCCCCCCC(=O)O)C(=O)O)C(=O)O)C(=O)N[C@@H](CC(N)=O)C(=O)N[C@@H]([C@@H](C)O)C(=O)N[C@@H](C)C(=O)N[C@@H]([C@@H](C)O)C(=O)N1)[C@@H](C)O)C(=O)N1CCC[C@H]1C(=O)N[C@@H](CO)C(=O)N[C@@H](CO)C(=O)N[C@H](C(=O)N[C@@H](CC(N)=O)C(=O)N[C@H](C(=O)NCC(=O)N[C@@H](Cc1c[nH]cn1)C(=O)N[C@@H](CC(N)=O)C(=O)N[C@H](C(=O)N[C@@H](Cc1ccc(O)cc1)C(N)=O)[C@@H](C)O)C(C)C)[C@@H](C)O [Example 87] (H-K([γGlu-γGlu-C20 diacid])CNTATCATQRLAEFLRHSSPNFGAIPSSTNVGHNTY-NH2; disulfide 2-7) | 29 | 20 |  |
| 45 | 56 | CC[C@H](C)[C@H](NC(=O)[C@H](C)NC(=O)CNC(=O)[C@H](Cc1ccccc1)NC(=O)[C@H](CC(N)=O)NC(=O)[C@@H]1CCCN1C(=O)[C@H](CO)NC(=O)[C@H](CO)NC(=O)[C@H](Cc1c[nH]cn1)NC(=O)[C@H](CCCNC(=N)N)NC(=O)[C@H](CC(C)C)NC(=O)[C@H](Cc1ccccc1)NC(=O)[C@H](CCCNC(=N)N)NC(=O)[C@H](C)NC(=O)[C@H](CC(C)C)NC(=O)[C@H](CCCNC(=N)N)NC(=O)[C@H](CCC(N)=O)NC(=O)[C@@H](NC(=O)[C@H](C)NC(=O)[C@@H]1CSSC[C@H](NC(=O)[C@@H](N)CCCCNC(=O)COCCOCCNC(=O)CC[C@H](NC(=O)CCCCCCCCCCCCCCCCCCC(=O)O)C(=O)O)C(=O)N[C@@H](CC(N)=O)C(=O)N[C@@H]([C@@H](C)O)C(=O)N[C@@H](C)C(=O)N[C@@H]([C@@H](C)O)C(=O)N1)[C@@H](C)O)C(=O)N1CCC[C@H]1C(=O)N[C@@H](CO)C(=O)N[C@@H](CO)C(=O)N[C@H](C(=O)N1CCC[C@H]1C(=O)N[C@H](C(=O)NCC(=O)N[C@@H](CO)C(=O)N[C@@H](CC(N)=O)C(=O)N[C@H](C(=O)N[C@@H](Cc1ccc(O)cc1)C(N)=O)[C@@H](C)O)C(C)C)[C@@H](C)O [Example 64] (H-K([AEEA-γGlu-C20 diacid])CNTATCATQRLARFLRHSSPNFGAIPSSTPVGSNTY-NH2; disulfide 2-7; N-terminus assumed) | 4 | 3 |  |
| 45 | 80.4 | CC[C@H](C)[C@H](NC(=O)[C@H](C)NC(=O)CNC(=O)[C@H](Cc1ccccc1)NC(=O)[C@H](CC(N)=O)NC(=O)[C@@H]1CCCN1C(=O)[C@H](CO)NC(=O)[C@H](CO)NC(=O)[C@H](Cc1c[nH]cn1)NC(=O)[C@H](CCCNC(=N)N)NC(=O)[C@H](CC(C)C)NC(=O)[C@H](Cc1ccccc1)NC(=O)[C@H](Cc1c[nH]cn1)NC(=O)[C@H](C)NC(=O)[C@H](CC(C)C)NC(=O)[C@H](CCCNC(=N)N)NC(=O)[C@H](CCC(N)=O)NC(=O)[C@@H](NC(=O)[C@H](C)NC(=O)[C@@H]1CSSC[C@H](NC(=O)[C@@H](N)CCCCNC(=O)CC[C@H](NC(=O)CCCCCCCCCCCCCCCCCCC(=O)O)C(=O)O)C(=O)N[C@@H](CC(N)=O)C(=O)N[C@@H]([C@@H](C)O)C(=O)N[C@@H](C)C(=O)N[C@@H]([C@@H](C)O)C(=O)N1)[C@@H](C)O)C(=O)N1CCC[C@H]1C(=O)N[C@@H](CO)C(=O)N[C@@H](CO)C(=O)N[C@H](C(=O)N[C@@H](CC(N)=O)C(=O)N[C@H](C(=O)NCC(=O)N[C@@H](CCCNC(=N)N)C(=O)N[C@@H](CC(N)=O)C(=O)N[C@H](C(=O)N[C@@H](Cc1ccc(O)cc1)C(N)=O)[C@@H](C)O)C(C)C)[C@@H](C)O [Example 85] (H-K([γGlu-C20 diacid])CNTATCATQRLAHFLRHSSPNFGAIPSSTNVGRNTY-NH2; disulfide 2-7 (inferred); N-terminus assumed) | 30 | 6 |  |
| 37 | 61.3 | CC[C@H](C)[C@H](NC(=O)[C@H](C)NC(=O)CNC(=O)[C@H](Cc1ccccc1)NC(=O)[C@H](CC(N)=O)NC(=O)[C@@H]1CCCN1C(=O)[C@H](CO)NC(=O)[C@H](CO)NC(=O)[C@H](Cc1c[nH]cn1)NC(=O)[C@H](CCCNC(=N)N)NC(=O)[C@H](CC(C)C)NC(=O)[C@H](Cc1ccccc1)NC(=O)[C@H](CC(N)=O)NC(=O)[C@H](C)NC(=O)[C@H](CC(C)C)NC(=O)[C@H](CCCNC(=N)N)NC(=O)[C@H](CCC(N)=O)NC(=O)[C@@H](NC(=O)[C@H](C)NC(=O)[C@@H]1CSSC[C@H](NC(=O)[C@@H](N)CCCCNC(=O)COCCOCCNC(=O)COCCOCCNC(=O)CC[C@H](NC(=O)CCCCCCCCCCCCCCCCCCC(=O)O)C(=O)O)C(=O)N[C@@H](CC(N)=O)C(=O)N[C@@H]([C@@H](C)O)C(=O)N[C@@H](C)C(=O)N[C@@H]([C@@H](C)O)C(=O)N1)[C@@H](C)O)C(=O)N1CCC[C@H]1C(=O)N[C@@H](CO)C(=O)N[C@@H](CO)C(=O)N[C@H](C(=O)N[C@@H](CC(N)=O)C(=O)N[C@H](C(=O)NCC(=O)N[C@@H](CCCNC(=N)N)C(=O)N[C@@H](CC(N)=O)C(=O)N[C@H](C(=O)N[C@@H](Cc1ccc(O)cc1)C(N)=O)[C@@H](C)O)C(C)C)[C@@H](C)O [Example 95] (H-K([AEEA-AEEA-γGlu-C20 diacid])CNTATCATQRLANFLRHSSPNFGAIPSSTNVGRNTY-NH2; disulfide 2-7 (inferred); N-terminus assumed) | 22 | 0 |  |

| SMILES | ThT pH 4.0 lag time (h) [1] [h] | IC50 ([2]; read-out: hCTR bind IC50) [nM] | Food intake reduction 0-24 h 30 nmol/kg (%) (Sprague Dawley (SD) rats) | Food intake reduction 24-48 h 30 nmol/kg (%) (Sprague Dawley (SD) rats) | IC50 [2] [nM] |
| --- | --- | --- | --- | --- | --- |
| CC[C@H](C)[C@H](NC(=O)[C@H](C)NC(=O)CNC(=O)[C@H](Cc1ccccc1)NC(=O)[C@H](CC(N)=O)NC(=O)[C@@H]1CCCN1C(=O)[C@H](CO)NC(=O)[C@H](CO)NC(=O)[C@H](Cc1c[nH]cn1)NC(=O)[C@H](CCCNC(=N)N)NC(=O)[C@H](CC(C)C)NC(=O)[C@H](Cc1ccccc1)NC(=O)[C@H](CCCCN)NC(=O)[C@H](C)NC(=O)[C@H](CC(C)C)NC(=O)[C@H](CCCNC(=N)N)NC(=O)[C@H](CCC(N)=O)NC(=O)[C@@H](NC(=O)[C@H](C)NC(=O)[C@@H]1CSSC[C@H](NC(=O)[C@@H](N)CCCCNC(=O)COCCOCCNC(=O)CC[C@H](NC(=O)CCCCCCCCCCCCCCCCCCC(=O)O)C(=O)O)C(=O)N[C@@H](CC(N)=O)C(=O)N[C@@H]([C@@H](C)O)C(=O)N[C@@H](C)C(=O)N[C@@H]([C@@H](C)O)C(=O)N1)[C@@H](C)O)C(=O)N1CCC[C@H]1C(=O)N[C@@H](CO)C(=O)N[C@@H](CO)C(=O)N[C@H](C(=O)N1CCC[C@H]1C(=O)N[C@H](C(=O)NCC(=O)N[C@@H](CO)C(=O)N[C@@H](CC(N)=O)C(=O)N[C@H](C(=O)N[C@@H](Cc1ccc(O)cc1)C(N)=O)[C@@H](C)O)C(C)C)[C@@H](C)O [Example 74] (H-K([AEEA-γGlu-C20 diacid])CNTATCATQRLAKFLRHSSPNFGAIPSSTPVGSNTY-NH2; disulfide 2-7; N-terminus assumed) | 45 |  |  |  | 79.9 |
